# Data published in patent US9073900B2, “Dihydroquinone derivatives of piperidine and piperazine” (KING FAHD UNIVERSITY OF PETROLEUM AND MINERALS, priority 2013, dated 2015).
row,Compound,melting point [°C]
1,"O=C1NCc2ccc(N3CCN(Cc4ccc(-c5ccccc5)cc4)CC3)cc2N1 [Compound 5a, 7-(4-(biphenyl-4-ylmethyl)piperazin-1-yl)-3,4-dihydroquinazolin-2(1H)-one]",134 to 135
2,"O=C1NCc2ccc(N3CCN(Cc4ccc(-c5ccc(F)cc5)cc4)CC3)cc2N1 [Compound 5b, 7-(4-((4′-fluorobiphenyl-4-yl)methyl)piperazin-1-yl)-3,4-dihydroquinazolin-2(1H)-one]",220 to 221
3,"O=C1NCc2ccc(N3CCN(Cc4cncc(-c5ccc(F)cc5)c4)CC3)cc2N1 [Compound 5d, 7-(4-((5-(4-fluorophenyl)pyridin-3-yl)methyl)piperazin-1-yl)-3,4-dihydroquinazolin-2(1H)-one]",180 to 181
4,"O=C1NCc2ccc(N3CCN(Cc4cncc(C5=CCCC5)c4)CC3)cc2N1 [Compound 5f, 7-(4((5-cyclopentenylpyridin-3-yl)methyl)piperazin-1-yl)-3,4-dihydroquinazolin-2(1H)-one]",185 to 186

# More lines, now with the values ahead:
row,melting point [°C],Compound
1,160 to 161,"O=C1NCc2ccc(C3CCN(Cc4ccc(-c5ccc(F)cc5)cc4)CC3)cc2N1 [Compound 6b, 7-(1-((4′-fluorobiphenyl-4-yl)methyl)piperidin-4-yl)-3,4-dihydroquinazolin-2(1H)-one]"
2,166 to 167,"O=C1NCc2ccc(C3CCN(Cc4cncc(C5=CCCC5)c4)CC3)cc2N1 [Compound 6f, 7-(1-((5-cyclopentenylpyridin-3-yl)methyl)piperidin-4-yl)-3,4-dihydroquinazolin-2(1H)-one]"
